Experimental data: PMC8842277, “Highly Antiproliferative Latonduine and Indolo[2,3-c]quinoline Derivatives: Complex Formation with Copper(II) Markedly Changes the Kinase Inhibitory Profile” (Journal of Medicinal Chemistry, 2022)

Tested on: AMPK (hum)
Assay: Kinase panel screen
Type: biochemical, human
Details: 10 µM compound
Description: Figure 7 (see also Table S4) summarizes the results of this assay as a histogram plotting the percentage of the remaining enzyme activity (x-axis) as a function of added lead compound (HL^8: blue trace, 8: red trace) for each of the 50 enzymes assayed (y-axis). […] Thus, the coordination to copper(II) completely changes the kinase inhibition profile of HL^8.
Figure 7 Screening of HL^8 and 8 against 50 enzymes: histogram with % remaining activity on the x-axis plotted against the compound identifier (blue trace: HL^8 and red trace: 8) and enzyme identifier on the […]. The screen was carried out at a compound concentration of 10 μM, an enzyme concentration of 50 nM, and an ATP concentration of 100 μM.
All kinase assays were carried out using Multidrop 384’s at room temperature in a total assay volume of 25.5 μL. To plates containing 0.5 μL of HL^8 and 8, DMSO control or acid blank […], 15 μL of an enzyme mix containing enzyme […], and excess peptide/protein substrate in buffer was added. Compounds were pre-incubated in the presence of the enzyme and peptide/protein substrate for 5 min before initiation of the reaction by addition of 10 μL of ATP (final concentration selected for each kinase at 5, 20, or 50 μM). […] The dry Unifilter plates were then sealed on the addition of MicroScint O and were counted in PerkinElmer Topcount scintillation counters.

CC(=NNc1nc2ccccc2c2c1[nH]c1ccc(Br)cc12)c1ccc(CN2CCOCC2)cn1.[Cl][Cu][Cl] [compound 8, CuCl2(HL^8)·H2O]
% remaining activity: 91%
